# Measured values reported in PubChem BioAssay AID1963851 (Molecular Pharmacology Branch, DTP, NCI, 2024).
# Several values for one entry are separate records, joined by “and”; a condition that tells them apart may be missing. Equal entries are not always repeated.
# System: 188146-221-R-J1-PDC complex spheroid viability
# Experiment: Anticancer human tumor 188146-221-R-J1-PDC patient-derived colon adenocarcinoma cell line growth inhibition [POLQ]
# Details: for viability, T/C: stronger effect = lower value
# Protocol: Multicellular complex tumor spheroid response to Polymerase (POL) inhibitors (novobiocin, ART-558, RP6685) in combination with a variety of drugs and investigational agents in selected tumor cell lines
# The POL inhibitors (novobiocin, ART-558, and RP6685) were evaluated both individually and in combination with standard of care and investigational anticancer small molecules within a complex spheroid model of solid tumors. . Complex spheroids include a stromal component modeled by human endothelial cells (HUVEC) and fibroblasts modeled by human mesenchymal stem cells (MSCs). The concentration ranges selected for each drug and investigational agent were based upon clinically achievable concentrations if the clinical Cmax of the agent was known.
# Compounds. The drugs and investigational agents: novobiocin (NSC847541), ART-558 (NSC835418), RP-6685 (NSC848927), peposertib (NSC802822), ceralasertib (NSC780249), elimusertib (NSC800525), camonsertib (NSC841442), AZD-1390 (NSC803789), olaparib (NSC753686), talazoparib (NSC767125), rucaparib (NSC756644), sotorasib (NSC818433), MRTX-1133 (NSC836407), SN-38 (NSC673596), topotecan (NSC609699), epotoside (NSC141540), doxorubicin (NSC123127), gemcitabine (NSC613327), 5-fluorouracil (NSC19893), paclitaxel (NSC125973), vemurafenib (NSC761431), MSA-2 (NSC828583), SN-011 (NSC837082), adavosertib (NSC754352), prexasertib (NSC758257), carboplatin (NSC241240) and oxaliplatin (NSC266046), were obtained from the National Cancer Institute (NCI) Developmental Therapeutics Program Chemical Repository (21). The FDA-approved anticancer drug set is available from the Developmental Therapeutics Program at https://dtp.cancer.gov/organization/dscb/obtaining/. […] The stock solutions were prepared in dimethyl sulfoxide (DMSO, Sigma-Aldrich, St. Louis, MO, cat. D2650), except for the platinum compounds which were prepared in saline (Quality Biological, Gaithersburg, MD, cat. 114-055-101), at 800-fold the tested concentration and stored at -70 degrees C prior to their use. All drugs and investigational agents were tested over a range starting from a high concentration at or near the clinical Cmax and decreasing in half-log increments. If the clinical Cmax for an agent had not been determined, the highest concentration tested was 10 microM, except for SN-38, which was tested at a high concentration of 1 microM.
# Cell Culture. All cells were maintained in an incubator at 37 degrees C and 5% CO2 with 95% humidity. The PDC lines were cultured according to standard operating procedures established by the NCI PDMR (https://pdmr.cancer.gov). Table 3 of the manuscript, lists the cell lines along with the number of the three cell types plated to form the mct-spheroids and media for tumor cell growth. After thawing, all PDC lines, except 997537-175-T-J1-PDC and 415267-285-R-J2-PDC, were cultured in Matrigel-coated flasks prepared with a working solution of 1X Ham's F-12 nutrient mix, without supplementation (Thermo Fisher Scientific, cat. 11765054), 100 U/mL penicillin-streptomycin (Thermo Fisher Scientific, cat. 15140122), and 2.5% Matrigel (Corning Inc., Corning, NY, cat. 354248) for the first three passages. The two PDC lines 997537-175-T-J1-PDC and 415267-285-R-J2-PDC were cultured on uncoated flasks. The 857933-349-R-J2-PDC line was cultured in 6C/Colon 1B media containing advanced DMEM/F-12 (Thermo Fisher Scientific, cat. 12634028), 10 mM HEPES (Thermo Fisher Scientific, cat. 15630080), 1X GlutaMAX supplement (Thermo Fisher Scientific, cat. 35050061), 0.1 mg/mL primocin (InvivoGen, San Diego, CA, cat. ant-pm-2), 10% defined fetal bovine serum, heat inactivated (HyClone Laboratories Inc., Logan, UT, cat. SH30070.03HI), 50% L-WRN conditioned media (ATCC, cat. CRL-3276), 1.25 mM N-Acetyl-L-cysteine (Sigma-Aldrich, cat. A9165), 10 mM nicotinamide (Sigma-Aldrich, cat. N0636), 1X B-27 supplement (Thermo Fisher Scientific, cat. 17504044), 1X N-2 supplement (Thermo Fisher Scientific, cat. […]
# 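Note: spheroids exposed to compounds for seven days.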
# 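Throughout, for viability, T/C: 100% = DMSO vehicle control viability.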
structure (smiles),measurement,setting,value
CC1COCCN1c1cc(-c2ccnn2C)c2ccnc(-c3ccn[nH]3)c2n1 (stereo not drawn) + COC1C(OC(N)=O)C(O)C(Oc2ccc3c(O)c(NC(=O)c4ccc(O)c(CC=C(C)C)c4)c(=O)oc3c2C)OC1(C)C,IC50,"curve of first compound, second compound 0.0316 µM",207 nM
same,IC50,"curve of first compound, second compound 0.1 µM",175 nM
same,IC50,"curve of first compound, second compound 0.316 µM",193 nM
same,IC50,"curve of first compound, second compound 1 µM",252 nM
same,IC50,"curve of first compound, second compound 3.16 µM",204 nM
same,IC50,"curve of first compound, second compound 10 µM",159 nM
same,"viability, T/C","second compound 0.0316 µM, first compound 0.0316 µM",81.5%
same,"viability, T/C","second compound 0.0316 µM, first compound 0.1 µM",67.3%
same,"viability, T/C","second compound 0.0316 µM, first compound 0.316 µM",39.3%
same,"viability, T/C","second compound 0.0316 µM, first compound 1 µM",23.3%
same,"viability, T/C","second compound 0.0316 µM, first compound 3.16 µM",16.3%
same,"viability, T/C","second compound 0.0316 µM, first compound 10 µM",14%
same,"viability, T/C","second compound 0.1 µM, first compound 0.0316 µM",94.2%
same,"viability, T/C","second compound 0.1 µM, first compound 0.1 µM",57.8%
same,"viability, T/C","second compound 0.1 µM, first compound 0.316 µM",44.5%
same,"viability, T/C","second compound 0.1 µM, first compound 1 µM",21.3%
same,"viability, T/C","second compound 0.1 µM, first compound 3.16 µM",18.1%
same,"viability, T/C","second compound 0.1 µM, first compound 10 µM",14.1%
same,"viability, T/C","second compound 0.316 µM, first compound 0.0316 µM",78.2%
same,"viability, T/C","second compound 0.316 µM, first compound 0.1 µM",66.3%
same,"viability, T/C","second compound 0.316 µM, first compound 0.316 µM",37.2%
same,"viability, T/C","second compound 0.316 µM, first compound 1 µM",22.4%
same,"viability, T/C","second compound 0.316 µM, first compound 3.16 µM",17.2%
same,"viability, T/C","second compound 0.316 µM, first compound 10 µM",13.3%
same,"viability, T/C","second compound 1 µM, first compound 0.0316 µM",83.3%
same,"viability, T/C","second compound 1 µM, first compound 0.1 µM",74.2%
same,"viability, T/C","second compound 1 µM, first compound 0.316 µM",43.3%
same,"viability, T/C","second compound 1 µM, first compound 1 µM",22.9%
same,"viability, T/C","second compound 1 µM, first compound 3.16 µM",16.9%
same,"viability, T/C","second compound 1 µM, first compound 10 µM",13.2%
same,"viability, T/C","second compound 3.16 µM, first compound 0.0316 µM",85.5%
same,"viability, T/C","second compound 3.16 µM, first compound 0.1 µM",61.6%
same,"viability, T/C","second compound 3.16 µM, first compound 0.316 µM",46.2%
same,"viability, T/C","second compound 3.16 µM, first compound 1 µM",19.4%
same,"viability, T/C","second compound 3.16 µM, first compound 3.16 µM",18.3%
same,"viability, T/C","second compound 3.16 µM, first compound 10 µM",14.1%
same,"viability, T/C","second compound 10 µM, first compound 0.0316 µM",79.9%
same,"viability, T/C","second compound 10 µM, first compound 0.1 µM",54.5%
same,"viability, T/C","second compound 10 µM, first compound 0.316 µM",44.6%
same,"viability, T/C","second compound 10 µM, first compound 1 µM",19.9%
same,"viability, T/C","second compound 10 µM, first compound 3.16 µM",16.7%
same,"viability, T/C","second compound 10 µM, first compound 10 µM",17%
CC1COCCN1c1cc(C2(O)CC3CCC(C2)O3)c2cnn(-c3ccn[nH]3)c2n1 (stereo not drawn),"viability, T/C",compound 0.0316 µM,92% and 93.4% and 87%
same,"viability, T/C",compound 0.1 µM,84.8% and 75% and 73.3%
same,"viability, T/C",compound 0.316 µM,44.9% and 50.6% and 53.1%
same,"viability, T/C",compound 1 µM,28.2% and 28.1% and 26%
same,"viability, T/C",compound 3.16 µM,21.8% and 18.4% and 19.3%
same,"viability, T/C",compound 10 µM,6.59% and 6.67% and 8.27%
same,IC50,curve of compound,321 nM and 329 nM and 342 nM
CCc1cc2c(N3CCc4c(cc(Cn5ccnc5)cc4-c4cn(C)nc4C(F)(F)F)C3=O)cc(C)nc2c(OC)n1,"viability, T/C",compound 0.0316 µM,114% and 97.3% and 106%
same,"viability, T/C",compound 0.1 µM,114% and 95.4% and 108%
same,"viability, T/C",compound 0.316 µM,95.9% and 83.1% and 98.9%
same,"viability, T/C",compound 1 µM,85.5% and 80.4% and 92.5%
same,"viability, T/C",compound 3.16 µM,71% and 77.1% and 66.7%
same,"viability, T/C",compound 10 µM,41.5% and 47.2% and 47.6%
same,IC50,curve of compound,7260 nM and 9620 nM and 8600 nM
CC1COCCN1c1cc(-c2ccnn2C)c2ccnc(-c3ccn[nH]3)c2n1 (stereo not drawn),"viability, T/C",compound 0.0316 µM,86.5% and 92.4% and 75%
same,"viability, T/C",compound 0.1 µM,74.4% and 67.1% and 60.5%
same,"viability, T/C",compound 0.316 µM,42.4% and 42.7% and 43.7%
same,"viability, T/C",compound 1 µM,19.7% and 27.9% and 21.6%
same,"viability, T/C",compound 3.16 µM,17% and 16.9% and 14.9%
same,"viability, T/C",compound 10 µM,14.1% and 11.3% and 13.9%
same,IC50,curve of compound,239 nM and 230 nM and 198 nM
